Values of other authors as cited in patent publication US7442709B2, “N3-substituted imidazopyridine c-Kit inhibitors” (OSI Pharmaceuticals, Inc., priority 2003, dated 2008).
Where a name gives a salt, the structure may show the parent alone.

Legend:
[1] = test system: MO7e human leukemia cells
[2] = test system: MO7e human leukemia cells; settings: GM-CSF stimulation

Cc1ccc(NC(=O)c2ccc(CN3CCN(C)CC3)cc2)cc1Nc1nccc(-c2cccnc2)n1 [Gleevec, imatinib mesylate]
Kit ligand-stimulated growth of MO7e human leukemia cells ([1]; Kit ligand stimulation): inhibited
Apoptosis in MO7e human leukemia cells ([1]; under Kit ligand-stimulated growth conditions): induces apoptosis
GM-CSF stimulated growth of MO7e human leukemia cells [2]: not affected
